Data: patent publication EP4001279A1, “NOVEL SPIROPYRROLIDINE DERIVED ANTIVIRAL AGENTS” (Enanta Pharmaceuticals, Inc., priority 2020, dated 2022)

System: 229E human corona virus (hCoV)
Experiment: 229E live virus assay (CPE, ATPlite readout in MRC-5 cells)
Format: cell-based, hCoV-229E
Conditions: Human coronavirus 229E, MRC5, hCoV-229E live virus, MOI 0.05, ATPlite readout, run in duplicate

## CCN(C(=O)OCc1ccccc1)[C@@H](CC(C)C)C(=O)N1C[C@]2(C[C@H]1C#N)C(=O)Nc1ccccc12 [Compound 90]
  EC50: 100 to 1000 nM

## CC(C)C[C@H](NC(=O)OCc1ccccc1)C(=O)N1C[C@]2(C[C@H]1C#N)C(=O)Nc1ccccc12 [Example 1]
  EC50: 100 to 1000 nM

## N#C[C@@H]1C[C@@]2(CN1C(=O)[C@H](CC1CCC1)NC(=O)OCc1ccccc1)C(=O)Nc1ccccc12 [Example 2]
  EC50: 100 to 1000 nM

## CC(C)(C)[C@H](NC(=O)OCc1ccccc1)C(=O)N1C[C@]2(C[C@H]1C#N)C(=O)Nc1ccccc12 [Example 3]
  EC50: > 1000 nM

## N#C[C@@H]1C[C@@]2(CN1C(=O)[C@H](CC1CC1)NC(=O)OCc1ccccc1)C(=O)Nc1ccccc12 [Example 4]
  EC50: 100 to 1000 nM

## CC(C)(C)C[C@H](NC(=O)OCc1ccccc1)C(=O)N1C[C@]2(C[C@H]1C#N)C(=O)Nc1ccccc12 [Example 5]
  EC50: 100 to 1000 nM

## COc1cccc2[nH]c(C(=O)N[C@@H](CC(C)C)C(=O)N3C[C@]4(C[C@H]3C#N)C(=O)Nc3ccccc34)cc12 [Example 11]
  EC50: < 100 nM

## COc1cccc2[nH]c(C(=O)N[C@H](CC(C)C)C(=O)N3C[C@]4(C[C@H]3C#N)C(=O)Nc3ccccc34)cc12 [Example 12]
  EC50: 100 to 1000 nM

## COc1cccc2[nH]c(C(=O)N[C@@H](CC3CCCCC3)C(=O)N3C[C@]4(C[C@H]3C#N)C(=O)Nc3ccccc34)cc12 [Example 13]
  EC50: < 100 nM

## COc1cccc2[nH]c(C(=O)N[C@H](CC3CCCCC3)C(=O)N3C[C@]4(C[C@H]3C#N)C(=O)Nc3ccccc34)cc12 [Example 14]
  EC50: < 100 nM

## COc1cccc2[nH]c(C(=O)N[C@@H](CC(C)(C)C)C(=O)N3C[C@]4(C[C@H]3C#N)C(=O)Nc3ccccc34)cc12 [Example 15]
  EC50: < 100 nM

## COc1cccc2[nH]c(C(=O)N[C@H](CC(C)(C)C)C(=O)N3C[C@]4(C[C@H]3C#N)C(=O)Nc3ccccc34)cc12 [Example 16]
  EC50: 100 to 1000 nM

## COc1cccc2[nH]c(C(=O)N[C@@H](CC3CCC3)C(=O)N3C[C@]4(C[C@H]3C#N)C(=O)Nc3ccccc34)cc12 [Example 17]
  EC50: < 100 nM

## CC(C)(C)[C@H](NC(=O)c1cc2c(F)cccc2[nH]1)C(=O)N1C[C@]2(C[C@H]1C#N)C(=O)Nc1ccccc12 [Example 18]
  EC50: 100 to 1000 nM

## COc1cccc2[nH]c(C(=O)N[C@@H](CC3CC3)C(=O)N3C[C@]4(C[C@H]3C#N)C(=O)Nc3ccccc34)cc12 [Example 19]
  EC50: < 100 nM

## CC(C)(C)C[C@H](NC(=O)c1cc2c(F)c(F)ccc2[nH]1)C(=O)N1C[C@]2(C[C@H]1C#N)C(=O)Nc1ccccc12 [Example 20]
  EC50: < 100 nM

## CC(C)(C)C[C@H](NC(=O)c1cc2c(F)cccc2[nH]1)C(=O)N1C[C@]2(C[C@H]1C#N)C(=O)Nc1ccccc12 [Example 21]
  EC50: < 100 nM

## COc1cccc2[nH]c(C(=O)NC(CC(C)C)C(=O)N3CC4(CC3C=O)C(=O)Nc3ccccc34)cc12 (stereo not shown) [Example 23]
  EC50: < 100 nM

## CC(C)C[C@@H](C(=O)N1C[C@]2(C[C@H]1C=O)C(=O)Nc1ccccc12)N(C)C(=O)OCc1ccccc1 [Example 24]
  EC50: < 100 nM

## CC(C)C[C@H](NC(=O)c1cc2c(F)cccc2[nH]1)C(=O)N1C[C@]2(C[C@H]1C=O)C(=O)Nc1ccccc12 [Example 25]
  EC50: < 100 nM

## COc1cc(C#N)cc2[nH]c(C(=O)N[C@@H](CC(C)C)C(=O)N3C[C@]4(C[C@H]3C#N)C(=O)Nc3ccccc34)cc12 [Example 26]
  EC50: < 100 nM

## CC(C)C[C@H](NC(=O)c1cc2c(F)cccc2[nH]1)C(=O)N1C[C@]2(C[C@H]1C#N)C(=O)Nc1ccccc12 [Example 27]
  EC50: < 100 nM

## CC(C)C[C@H](NC(=O)c1cc2c(F)cccc2[nH]1)C(=O)N1C[C@]2(C[C@H]1C#N)C(=O)Nc1c(F)cccc12 [Example 28]
  EC50: < 100 nM

## COc1cccc2[nH]c(C(=O)N[C@@H](CC(C)C)C(=O)N3C[C@]4(C[C@H]3C(O)S(=O)(=O)O)C(=O)Nc3ccccc34)cc12 (stereo partly shown) [Example 29]
  EC50: < 100 nM

## CC(C)C[C@@H](C(=O)N1C[C@]2(C[C@H]1C(O)S(=O)(=O)O)C(=O)Nc1ccccc12)N(C)C(=O)c1cc2c(F)cccc2[nH]1 (stereo partly shown) [Example 30]
  EC50: < 100 nM

## COc1cccc2[nH]c(C(=O)N[C@@H](CC(C)C)C(=O)N3C[C@]4(C[C@H]3C(=O)C(=O)NC3CC3)C(=O)Nc3ccccc34)cc12 [Example 31]
  EC50: 100 to 1000 nM

## COc1cccc2[nH]c(C(=O)N[C@@H](CC(C)C)C(=O)N3C[C@]4(C[C@H]3C(=O)C(=O)NCc3ccccc3)C(=O)Nc3ccccc34)cc12 [Example 32]
  EC50: 100 to 1000 nM

## COc1cccc2[nH]c(C(=O)N[C@@H](CC(C)C)C(=O)N3C[C@]4(C[C@H]3C(=O)C(=O)NC3CCCCC3)C(=O)Nc3ccccc34)cc12 [Example 33]
  EC50: > 1000 nM

## COc1cccc2[nH]c(C(=O)N(C)[C@@H](CC(C)C)C(=O)N3C[C@]4(C[C@H]3C(=O)C(=O)NC3CCCCC3)C(=O)Nc3ccccc34)cc12 [Example 34]
  EC50: > 1000 nM

## CC(C)C[C@@H](C(=O)N1C[C@]2(C[C@H]1C(=O)C(=O)NC1CCCCC1)C(=O)Nc1ccccc12)N(C)C(=O)c1cc2c(F)cccc2[nH]1 [Example 35]
  EC50: > 1000 nM

## CC(C)C[C@@H](C(=O)N1C[C@]2(C[C@H]1C(=O)C(=O)NC1CC1)C(=O)Nc1ccccc12)N(C)C(=O)c1cc2c(F)cccc2[nH]1 [Example 36]
  EC50: 100 to 1000 nM

## COc1cccc2[nH]c(C(=O)N[C@@H](CC(C)C)C(=O)N3C[C@]4(C[C@H]3C(=O)O)C(=O)Nc3ccccc34)cc12 [Example 37]
  EC50: 100 to 1000 nM

## CC(C)C[C@@H](C(=O)N1C[C@]2(C[C@H]1C#N)C(=O)Nc1ccccc12)N(C)C(=O)OCc1ccccc1 [Example 39]
  EC50: > 1000 nM

## CN(C(=O)OCc1ccccc1)[C@@H](CC(C)(C)C)C(=O)N1C[C@]2(C[C@H]1C#N)C(=O)Nc1ccccc12 [Example 40]
  EC50: 100 to 1000 nM

## CN(C(=O)OCc1ccccc1)[C@@H](Cc1ccccc1)C(=O)N1C[C@]2(C[C@H]1C#N)C(=O)Nc1ccccc12 [Example 41]
  EC50: > 1000 nM

## COc1cccc2[nH]c(C(=O)N(C)[C@@H](CC(C)C)C(=O)N3C[C@]4(C[C@H]3C#N)C(=O)Nc3ccccc34)cc12 [Example 42]
  EC50: < 100 nM

## CC(C)C[C@@H](C(=O)N1C[C@]2(C[C@H]1C#N)C(=O)Nc1ccccc12)N(C)C(=O)c1sc2cc(F)ccc2c1Cl [Example 43]
  EC50: < 100 nM

## CC(C)C[C@@H](C(=O)N1C[C@]2(C[C@H]1C#N)C(=O)Nc1ccccc12)N(C)C(=O)c1cc2c(F)cccc2[nH]1 [Example 44]
  EC50: < 100 nM

## CC(C)C[C@@H](C(=O)N1C[C@]2(C[C@H]1C#N)C(=O)Nc1ccccc12)N(C)C(=O)c1cc2c(C3CC3)cccc2[nH]1 [Example 45]
  EC50: < 100 nM

## CC(C)C[C@@H](C(=O)N1C[C@]2(C[C@H]1C#N)C(=O)Nc1ccccc12)N(C)C(=O)c1cc2c(F)cc(F)cc2[nH]1 [Example 46]
  EC50: < 100 nM

## Cc1c(C(=O)N(C)[C@@H](CC(C)C)C(=O)N2C[C@]3(C[C@H]2C#N)C(=O)Nc2ccccc23)[nH]c2cc(F)cc(F)c12 [Example 47]
  EC50: 100 to 1000 nM

## CC(C)C[C@@H](C(=O)N1C[C@]2(C[C@H]1C#N)C(=O)Nc1ccccc12)N(C)C(=O)c1[nH]c2ccccc2c1-c1ccccc1 [Example 48]
  EC50: 100 to 1000 nM

## CC(C)C[C@@H](C(=O)N1C[C@]2(C[C@H]1C#N)C(=O)Nc1ccccc12)N(C)C(=O)c1cc2c(OC(F)(F)F)cccc2[nH]1 [Example 49]
  EC50: < 100 nM

## CC(C)C[C@@H](C(=O)N1C[C@]2(C[C@H]1C#N)C(=O)Nc1ccccc12)N(C)C(=O)c1cc2ccc(F)cc2[nH]1 [Example 50]
  EC50: < 100 nM

## CC(C)C[C@@H](C(=O)N1C[C@]2(C[C@H]1C#N)C(=O)Nc1ccccc12)N(C)C(=O)c1cc2c(OC(F)F)cccc2[nH]1 [Example 51]
  EC50: < 100 nM

## CC(C)C[C@@H](C(=O)N1C[C@]2(C[C@H]1C#N)C(=O)Nc1ccccc12)N(C)C(=O)c1cc2c(F)cc(F)c(F)c2[nH]1 [Example 52]
  EC50: < 100 nM

## COc1ccc(Cl)c(C(=O)N(C)[C@@H](CC(C)C)C(=O)N2C[C@]3(C[C@H]2C#N)C(=O)Nc2ccccc23)c1 [Example 58]
  EC50: 100 to 1000 nM

## CC(C)C[C@@H](C(=O)N1C[C@]2(C[C@H]1C#N)C(=O)Nc1ccccc12)N(C)C(=O)c1ncccc1Cl [Example 59]
  EC50: > 1000 nM

## CC(C)C[C@@H](C(=O)N1C[C@]2(C[C@H]1C#N)C(=O)Nc1ccccc12)N(C)C(=O)c1cncc(C#N)c1 [Example 60]
  EC50: 100 to 1000 nM

## CC(C)C[C@@H](C(=O)N1C[C@]2(C[C@H]1C#N)C(=O)Nc1ccccc12)N(C)C(=O)c1ccc(F)cc1Cl [Example 61]
  EC50: > 1000 nM

## CC(C)C[C@@H](C(=O)N1C[C@]2(C[C@H]1C#N)C(=O)Nc1ccccc12)N(C)C(=O)c1cc(F)ccc1Cl [Example 62]
  EC50: > 1000 nM

## CC(C)C[C@@H](C(=O)N1C[C@]2(C[C@H]1C#N)C(=O)Nc1ccccc12)N(C)C(=O)c1ccc(F)c(Cl)c1 [Example 63]
  EC50: > 1000 nM

## CC(C)C[C@@H](C(=O)N1C[C@]2(C[C@H]1C#N)C(=O)Nc1ccccc12)N(C)C(=O)c1c(Cl)cccc1Cl [Example 64]
  EC50: > 1000 nM

## CC(C)C[C@@H](C(=O)N1C[C@]2(C[C@H]1C#N)C(=O)Nc1ccccc12)N(C)C(=O)c1cc2c(Cl)cccc2[nH]1 [Example 65]
  EC50: < 100 nM

## CC(C)C[C@@H](C(=O)N1C[C@]2(C[C@H]1C#N)C(=O)Nc1ccccc12)N(C)C(=O)c1cc2c(Br)ccc(Cl)c2[nH]1 [Example 66]
  EC50: < 100 nM

## CC(C)C[C@@H](C(=O)N1C[C@]2(C[C@H]1C#N)C(=O)Nc1ccccc12)N(C)C(=O)c1cc2c(OC3CC3)cccc2[nH]1 [Example 82]
  EC50: < 100 nM

## COc1cccc2[nH]c(C(=O)N(C)[C@@H](CC(C)(C)C)C(=O)N3C[C@]4(C[C@H]3C#N)C(=O)Nc3ccccc34)cc12 [Example 85]
  EC50: < 100 nM

## CN(C(=O)c1cc2c(F)c(F)ccc2[nH]1)[C@@H](CC(C)(C)C)C(=O)N1C[C@]2(C[C@H]1C#N)C(=O)Nc1ccccc12 [Example 86]
  EC50: < 100 nM

## CN(C(=O)c1cc2c(F)cccc2[nH]1)[C@@H](CC(C)(C)C)C(=O)N1C[C@]2(C[C@H]1C#N)C(=O)Nc1ccccc12 [Example 87]
  EC50: < 100 nM

## CN(C(=O)c1cc2c(F)cc(F)cc2[nH]1)[C@@H](CC(C)(C)C)C(=O)N1C[C@]2(C[C@H]1C#N)C(=O)Nc1ccccc12 [Example 88]
  EC50: < 100 nM

## CN(C(=O)OCc1ccccc1)[C@@H](CC1CCC1)C(=O)N1C[C@]2(C[C@H]1C#N)C(=O)Nc1ccccc12 [Example 89]
  EC50: 100 to 1000 nM
